From publication PMC4136699 (ACS Chemical Biology, 2014)
Where a SMILES comes first, the peptide text is derived from it. The star is where a group is joined. Dansyl = CN(C)c1cccc2c(S(=O)(=O)*)cccc12

Columns and labels:
CaPFTase = assay: Continuous fluorescence kinetic assay of dansylated Ds-GCa1a2X peptides; format: biochemical, Candida albicans; settings: greater with CaPFTase, Table S4
yPFTase = biological target: T1, yPFTase (Saccharomyces cerevisiae, UniProt P22007+P29703); assay: as above; format: biochemical; settings: greater with yPFTase, Table S4
T1 sequence (P22007 1-431): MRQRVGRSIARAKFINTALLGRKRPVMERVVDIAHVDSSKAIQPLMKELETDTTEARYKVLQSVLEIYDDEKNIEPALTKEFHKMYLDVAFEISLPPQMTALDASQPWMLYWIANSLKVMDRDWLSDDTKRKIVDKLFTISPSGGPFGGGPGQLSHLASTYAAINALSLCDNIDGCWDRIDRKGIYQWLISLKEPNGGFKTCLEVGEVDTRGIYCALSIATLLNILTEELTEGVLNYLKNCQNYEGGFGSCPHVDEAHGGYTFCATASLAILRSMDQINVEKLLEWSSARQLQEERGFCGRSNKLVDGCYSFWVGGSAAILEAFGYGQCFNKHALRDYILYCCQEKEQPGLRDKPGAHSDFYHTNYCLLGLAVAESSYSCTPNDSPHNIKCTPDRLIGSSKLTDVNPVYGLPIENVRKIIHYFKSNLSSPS
T1 sequence (P29703 1-316 partner): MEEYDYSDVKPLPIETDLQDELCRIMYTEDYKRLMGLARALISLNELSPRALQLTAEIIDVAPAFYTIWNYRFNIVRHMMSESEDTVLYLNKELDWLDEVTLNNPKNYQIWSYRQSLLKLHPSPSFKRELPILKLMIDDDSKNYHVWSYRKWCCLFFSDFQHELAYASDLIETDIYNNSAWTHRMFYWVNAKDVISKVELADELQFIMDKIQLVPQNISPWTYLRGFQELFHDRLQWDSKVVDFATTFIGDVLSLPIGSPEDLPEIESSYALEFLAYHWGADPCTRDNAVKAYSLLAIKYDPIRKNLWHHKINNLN

| Molecule | kcat/KM of CaPFTase compared with rPFTase (CaPFTase) | kcat/KM of yPFTase compared with rPFTase (yPFTase) |
| --- | --- | --- |
| CC(C)[C@H](NC(=O)[C@@H](NC(=O)[C@@H](NC(=O)[C@H](CS)NC(=O)CNS(=O)(=O)c1cccc2c(N(C)C)cccc12)C(C)C)C(C)C)C(=O)O [Ds-GCVVV] (Dansyl-GCVVV-OH) | 6.2 fold | – |
| Ds-GCVTN | – | 11 fold |
